Where “and” joins values, the source holds several entries; their conditions need not be identical. Equal values may be shown once. Inconclusive results and toxic doses are left out. Rule for the calls: active = survival T/C of 150% or more; inactive = T/C below 125% in these data.
Test system: CD2F1 mice, L1210 leukemia ip, survival T/C
Assay: NCI In Vivo Anticancer Drug Screen. Data for tumor model L1210 Leukemia (intraperitoneal) in CD2F1 (CDF1) mice
Conditions: higher = longer survival
How it was run: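 Vehicle-treated tumor-bearing mice served as controls (C) for compound-treated mice (T). Reported figure is T divided by C.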

[1] = endpoint: mean survival time, dose: 100.0 mg/kg/injection, schedule: Q04DX003 (ip), vehicle: saline with Tween-80
[2] = endpoint: mean survival time, dose: 200.0 mg/kg/injection, schedule: Q04DX003 (ip), vehicle: saline with Tween-80
[3] = endpoint: mean survival time, dose: 25.0 mg/kg/injection, schedule: Q04DX002 (ip), vehicle: saline with Tween-80
[4] = endpoint: mean survival time, dose: 50.0 mg/kg/injection, schedule: Q04DX002 (ip), vehicle: saline with Tween-80
[5] = endpoint: mean survival time, dose: 400.0 mg/kg/injection, schedule: Q04DX003 (ip), vehicle: saline with Tween-80
[6] = endpoint: mean survival time, dose: 100.0 mg/kg/injection, schedule: Q01DX009 (ip), vehicle: saline with Tween-80

Measured: T/C

CC(C(=O)O)N(C)N=O (configuration not stated)
inactive: endpoint: mean survival time, dose: 50.0 mg/kg/injection, schedule: Q01DX009 (ip), vehicle: Klucel (hydroxypropylcellulose) (HPC) 104 % of control | endpoint: mean survival time, dose: 100.0 mg/kg/injection, schedule: Q01DX009 (ip), vehicle: Klucel (hydroxypropylcellulose) (HPC) 93 % of control | endpoint: mean survival time, dose: 200.0 mg/kg/injection, schedule: Q01DX009 (ip), vehicle: Klucel (hydroxypropylcellulose) (HPC) 86 % of control

CN(C)S(=O)(=O)Oc1cccc(N)c1
inactive: [1] 92 % of control | [2] 87 % of control

CCn1c(=N)sc2ccc(C(=O)OC)cc21
inactive: endpoint: mean survival time, dose: 12.5 mg/kg/injection, schedule: Q04DX002 (ip), vehicle: saline with Tween-80 101 % of control | [3] 96 % of control | [4] 90 % of control | [2] 88 % of control

CCOP(=S)(N=C=S)OCC
inactive: [3] 98 % of control | [4] 90 % of control

CC(=O)Nc1nc(/C=C\c2ccc([N+](=O)[O-])cc2)c(CCCCc2ccccc2)c(=O)[nH]1
inactive: endpoint: mean survival time, dose: 3.13 mg/kg/injection, schedule: Q01DX001 (ip), vehicle: saline with Tween-80 98 % of control | endpoint: mean survival time, dose: 6.25 mg/kg/injection, schedule: Q01DX001 (ip), vehicle: saline with Tween-80 96 % of control | endpoint: mean survival time, dose: 12.5 mg/kg/injection, schedule: Q01DX001 (ip), vehicle: saline with Tween-80 98 % of control

N#Cc1n[nH]c(C2OC(CO)C(O)C2O)c1O (configuration not stated)
inactive: endpoint: median survival time, dose: 9.38 mg/kg/injection, schedule: Q01DX005 (ip), vehicle: water 104 % of control | endpoint: median survival time, dose: 18.75 mg/kg/injection, schedule: Q01DX005 (ip), vehicle: water 106 % of control | endpoint: median survival time, dose: 39.5 mg/kg/injection, schedule: Q01DX005 (ip), vehicle: water 109 % of control | endpoint: median survival time, dose: 79.0 mg/kg/injection, schedule: Q01DX005 (ip), vehicle: water 109 % of control | endpoint: median survival time, dose: 158.0 mg/kg/injection, schedule: Q01DX005 (ip), vehicle: water 109 % of control

CC(C)[Si](F)(c1ccc(Br)cc1)C(C)C
inactive: [1] 108 % of control | [2] 106 % of control | [5] 93 % of control

OCC12COCN1COC2
inactive: endpoint: mean survival time, dose: 12.5 mg/kg/injection, schedule: Q01DX009 (ip), vehicle: saline 98 % of control and 104 % of control | endpoint: mean survival time, dose: 25.0 mg/kg/injection, schedule: Q01DX009 (ip), vehicle: saline 94 % of control and 96 % of control | endpoint: mean survival time, dose: 50.0 mg/kg/injection, schedule: Q01DX009 (ip), vehicle: saline 101 % of control and 104 % of control | endpoint: mean survival time, dose: 100.0 mg/kg/injection, schedule: Q01DX009 (ip), vehicle: saline 98 % of control and 101 % of control | endpoint: mean survival time, dose: 200.0 mg/kg/injection, schedule: Q01DX009 (ip), vehicle: saline 96 % of control and 106 % of control | endpoint: mean survival time, dose: 400.0 mg/kg/injection, schedule: Q01DX009 (ip), vehicle: saline 109 % of control and 112 % of control

COC1=CC(=O)C(C2CC(=O)c3c(O)cc(O)cc3O2)=CC1=O (configuration not stated)
inactive: [6] 101 % of control | [1] 100 % of control | [2] 100 % of control | [5] 98 % of control

CN(C)c1ccc(N=Nc2ccc(CI)cc2)cc1
inactive: endpoint: mean survival time, dose: 25.0 mg/kg/injection, schedule: Q04DX003 (ip), vehicle: Klucel (hydroxypropylcellulose) (HPC) 89 % of control | endpoint: mean survival time, dose: 50.0 mg/kg/injection, schedule: Q04DX003 (ip), vehicle: Klucel (hydroxypropylcellulose) (HPC) 112 % of control | endpoint: mean survival time, dose: 100.0 mg/kg/injection, schedule: Q04DX003 (ip), vehicle: Klucel (hydroxypropylcellulose) (HPC) 96 % of control | endpoint: mean survival time, dose: 200.0 mg/kg/injection, schedule: Q04DX003 (ip), vehicle: Klucel (hydroxypropylcellulose) (HPC) 93 % of control

O=c1cc[nH]cc1
inactive: [6] 94 % of control | endpoint: mean survival time, dose: 100.0 mg/kg/injection, schedule: Q04DX003 (ip), vehicle: saline 103 % of control | endpoint: mean survival time, dose: 200.0 mg/kg/injection, schedule: Q01DX009 (ip), vehicle: saline with Tween-80 100 % of control | endpoint: mean survival time, dose: 200.0 mg/kg/injection, schedule: Q04DX003 (ip), vehicle: saline 97 % of control | endpoint: mean survival time, dose: 400.0 mg/kg/injection, schedule: Q01DX009 (ip), vehicle: saline with Tween-80 96 % of control | endpoint: mean survival time, dose: 400.0 mg/kg/injection, schedule: Q04DX003 (ip), vehicle: saline 95 % of control

— PubChem BioAssay AID256 (DTP/NCI, 2004)
